Patent publication US7485626B2, “Combinations of enzyme inhibitor-containing preparations and the use thereof” (IMTM GmbH, priority 2000, dated 2009)

How the values were obtained:
Type in all cases: cell-based
[1] = system: human peripheric mononuclear cells (MNZ); experiment: DNA synthesis of human peripheric mononuclear cells (3[H]-thymidine incorporation); conditions: 72 h incubation
Protocol: The MNZ were incubated for 72 h in the presence of said inhibitors, and the DNA synthesis rate was determined subsequently by the measurement of the ^3[H]-thymidine incorporation, as was described by Reinhold et al. [D. Reinhold et al.: “Inhibitors of dipeptidyl peptidase IV induce secretion of transforming growth factor β1 in PWM-stimulated PBMNC and T cells”, Immunology 1997, 91, 354-360].
(§1) Human MNZ were incubated for three days with the concentrations of inhibitors mentioned above. Subsequently, ^3[H]-methyl thymidine was added to the culture medium, and the amount of ^3[H]-thymidine incorporated into the DNA was measured after further 6 hours.

[2] = system: human peripheric T lymphocytes; experiment: DNA synthesis of human T lymphocytes (3[H]-thymidine incorporation); conditions: 72 h incubation; for DNA synthesis of human peripheric T lymphocytes: simultaneous administration of I49 (DP IV inhibitor) and Actinonin (APN inhibitor), FIG. 1
Protocol: The T cells were incubated for 72 h in the presence of said inhibitors and subsequently, the DNA synthesis rate was determined via a measurement of the ^3[H]-thymidin incorporation, as was described by Reinhold et al. [D. Reinhold et al.: “Inhibitors of dipeptidyl peptidase IV induce secretion of transforming growth factor β1 in PWM-stimulated PBMNC and T cells”, Immunology 1997, 91, 354-360].
Human peripheric T cells were incubated over 3 days with the concentrations of the inhibitors shown. Subsequently, ^3[H]-methyl thymidine was added to the culture medium, and the amount of ^3[H]-thymidine inserted into the DNA was measured after further 6 hours.
The T cells were incubated for 72 h in the presence of said inhibitors, and the DNA synthesis rate was determined subsequently by the measurement of the ^3[H]-thymidine incorporation, as was described by Reinhold et al. [D. Reinhold et al.: “Inhibitors of dipeptidyl peptidase IV induce secretion of transforming growth factor β1 in PWM-stimulated PBMNC and T cells”, Immunology 1997, 91, 354-360].
as §1, with “FIG. 3 show a the synergistic and dose-dependent effect of inhibitors of DP IV (I49) and of prolyl oligopeptidase (Boc-Ala-Thia) on the DNA synthesis of human peripheric T lymphocytes. Human” for “Human”, “T cells” for “MNZ”
Human T cells were incubated for three days with the concentrations of inhibitors mentioned above. Subsequently, ^3[H]-methyl thymidine was added to the culture medium, and the amount of ^3[H]-thymidine incorporated into the DNA was measured after further 6 hours.

[3] = system: activated human peripheric T cells; experiment: Proliferation of activated human peripheric T cells (WST-1 cell proliferation assay); conditions: single or simultaneous administration of I49 and APN inhibitors (Actinonin and Probestin); activated with phytohemagglutinine and phorbol-12-myristate-13-acetate; 72 h; FIG. 9
Protocol: FIG. 9: The T cells, with the exception of the untreated control, were activated by an addition of phytohemagglutinine and phorbol-12-myristate-13-acetate to the culture medium and were incubated for a time period of 72 h in the presence of the above-mentioned inhibitors single and in combination. Subsequently, the number of metabolically active cells was determined by using the commercially available WST-1 cell proliferation assay (Takara Inc.) in accordance with the provisions of the manufacturer.

[4] = system: human peripheric mononuclear cells (MNZ); experiment: Proliferation of PHA-activated human mononuclear cells (WST-1 cell proliferation assay); conditions: 72 h; for Proliferation of human peripheric mononuclear cells (MNZ), number of metabolically active cells: single and simultaneous administration of I49 and Actinonin, PHA, FIG. 7; for Proliferation of PHA-activated human mononuclear cells (MNZ), number of metabolically active cells: single or simultaneous administration of I49 and Apstatin (X-Pro-aminopeptidase inhibitor), FIG. 10
Protocol: FIG. 7: The MNZ were incubated for a time period of 72 h without addition (control), with an addition of the mitogenic lectin phytohemagglutinin (PHA), and with the addition of PHA and the inhibitors mentioned above, respectively. Subsequently, the number amount of metabolically active cells was determined by using the commercially available WST-1 cell proliferation assay (Takara Inc.) in accordance with the provisions of the manufacturer.
FIG. 10: The mononuclear cells (MNZ) were incubated for a time period of 72 h in the presence of the inhibitors mentioned above single and in combination. Subsequently, the number of metabolically active cells was determined by using the commercially available WST-1 cell proliferation assay (Takara Inc.) in accordance with the provisions of the manufacturer.

[5] = system: human T cell line KARPAS-299; experiment: Proliferation of KARPAS-299 cells (WST-1 cell proliferation assay); conditions: single and simultaneous administration of I49 and APN inhibitors (Actinonin and Probestin); FIG. 8
Protocol: FIG. 8: The KARPAS-299 cells were incubated without addition (control) and in the presence of single inhibitors mentioned above as well as in the presence of combinations thereof, respectively. Subsequently, the number of metabolically active cells was determined by using the commercially available WST-1 cell proliferation assay (Takara Inc.) in accordance with the provisions of the manufacturer.

[6] = simultaneous administration of I49 (DP IV inhibitor) and actinonine (APN inhibitor), FIG. 2
[7] = simultaneous administration of I49 (DP IV inhibitor) and Boc-Ala-Thiazolidid (prolyl oligopeptidase inhibitor), FIG. 4
[8] = simultaneous administration of I49 (DP IV inhibitor) and Boc-Ala-thiazolidid (prolyl oligopeptidase inhibitor), FIG. 3
[9] = simultaneous administration of I49 (DP IV inhibitor) and Captopril (ACE inhibitor), FIG. 6
[10] = simultaneous administration of I49 (DP IV inhibitor) and Captopril (ACE inhibitor), FIG. 5

SMILES | DNA synthesis of human peripheric mononuclear cells (MNZ) [1, 6] | DNA synthesis of human peripheric T lymphocytes [2] | Proliferation of activated human peripheric T cells, number of metabolically active cells [3] | Proliferation of human peripheric mononuclear cells (MNZ), number of metabolically active cells [4] | Proliferation of the human T cell line KARPAS-299, number of metabolically active cells [5] | Proliferation of PHA-activated human mononuclear cells (MNZ), number of metabolically active cells [4] | DNA synthesis of human peripheric mononuclear cells (MNZ) [1, 7] | DNA synthesis of human T lymphocytes [2, 8] | DNA synthesis of human peripheric mononuclear cells (MNZ) [1, 9] | DNA synthesis of human T lymphocytes [2, 10]
CCCCC[C@H](CC(=O)NO)C(=O)N[C@H](C(=O)N1CCC[C@H]1CO)C(C)C [Actinonin] | inhibited in a superadditive manner | inhibited in a superadditive manner | Inhibition of the Proliferation | Inhibition of the Proliferation | Inhibition of the Proliferation | – | – | – | – | –
C[C@H](NC(=O)[C@@H]1CCCN1C(=O)[C@@H]1CCCN1C(=O)[C@@H](O)[C@H](N)Cc1ccccc1)C(N)=O [Apstatin] | – | – | – | – | – | Inhibition of the Proliferation | – | – | – | –
CC(NC(=O)OC(C)(C)C)C(=O)N1CCSC1 (stereo not drawn) [Boc-Ala-thiazolidid] | – | – | – | – | – | – | inhibited in a superadditive manner | inhibited in a superadditive manner | – | –
C[C@H](CS)C(=O)N1CCC[C@H]1C(=O)O [Captopril] | – | – | – | – | – | – | – | – | inhibited in a superadditive manner | inhibited in a superadditive manner
NC(CCCCNC(=O)OCc1ccc([N+](=O)[O-])cc1)C(=O)N1CCSC1 (stereo not shown) [I49, Lys[Z(NO2)]-thiazolidid] | inhibited in a superadditive manner | inhibited in a superadditive manner | Inhibition of the Proliferation | Inhibition of the Proliferation | Inhibition of the Proliferation | Inhibition of the Proliferation | inhibited in a superadditive manner | inhibited in a superadditive manner | inhibited in a superadditive manner | inhibited in a superadditive manner
CC(C)C[C@H](NC(=O)[C@@H](O)[C@H](N)Cc1ccccc1)C(=O)N1CCC[C@H]1C(=O)N1CCC[C@H]1C(=O)O [Probestin] | – | – | Inhibition of the Proliferation | – | Inhibition of the Proliferation | – | – | – | – | –
